In brackets after ≈: the same amount, converted by molar mass. Where a SMILES comes first, the peptide text is derived from it. Bridges are numbered along the chain shown (N, C = ends). Roman numbers before positions name the chains, in order. [ ]: non-standard residue; d: D form. The star is where a group is joined. Thr(ol) = C[C@@H](O)[C@H](N)CO; Tle = CC(C)(C)[C@H](N)C(=O)O; Hiv = CC(C)[C@H](O)C(=O)O; dDab = NCC[C@@H](N)C(=O)O; hSer = N[C@@H](CCO)C(=O)O; Dab = NCC[C@H](N)C(=O)O; Dap = NC[C@H](N)C(=O)O; NHCH2CH2OH = OCCN*
How the values were obtained:
Format in all cases: cell-based
[1] = tested on: Acinetobacter baumannii 872842; conditions: 872842
Procedure, shortened: (§1)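 Broth microdilution per CLSI; MH-II (cation-adjusted) + 0.002% P-80 final; ~10^6 CFU/mL inoculum; 2-fold peptide series; 35° C, 18-20 h; MIC = no visible growth, μg/mL.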

[2] = tested on: Acinetobacter baumannii DSM 30008; conditions: DSM 30008
Procedure, shortened: as §1

[3] = tested on: Enterobacter cloacae 848840; conditions: 848840
Procedure, shortened: as §1

Escherichia coli 926415 = conditions: 926415
Procedure, shortened: as §1

[4] = tested on: Escherichia coli ATCC 25922; conditions: ATCC 25922
Procedure, shortened: as §1

[5] = tested on: Klebsiella pneumoniae 968733; conditions: 968733
Procedure, shortened: as §1

[6] = tested on: Klebsiella pneumoniae SSI #3010; conditions: SSI #3010
Procedure, shortened: as §1

[7] = tested on: Pseudomonas aeruginosa ATCC 27853; conditions: ATCC 27853
Procedure, shortened: as §1

[8] = tested on: human red blood cells (hRBC); experiment: Hemolysis; conditions: red cells of human, 1 h, 200
Procedure, shortened: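 Washed fresh human RBC (20% v/v) incubated with peptide at 200 μg/mL for 1 h at 37° C with shaking. Supernatant OD540 measured after dilution, blank corrected; percent hemolysis = OD540 peptide / OD540 of 2% Triton X-100 lysis × 100, PBS with 10% water as 0%.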

Row | SMILES | MIC [1] [µg/mL] | MIC [2] [µg/mL] | MIC [3] [µg/mL] | MIC (Escherichia coli 926415) [µg/mL] | MIC [4] [µg/mL] | MIC [5] [µg/mL] | MIC [6] [µg/mL] | MIC [7] [µg/mL] | Hemolysis at 200 μg/mL [8] [%]
1 | CC(C)C[C@@H]1NC(=O)[C@@H](CC(C)C)NC(=O)[C@H](CCN)NC(=O)[C@@H](NC(=O)[C@H](CCN)NC(=O)[C@@H](NC(=O)[C@H](CCN)NC(=O)CC[C@@H]2NC(=O)[C@H](CCN)NC(=O)[C@H](Cc3ccc(O)cc3)NC(=O)[C@@H](NC(=O)[C@@H](N)C(C)C)CC(=O)NCC[C@@H](C(=O)N[C@@H](CO)C(=O)O)NC(=O)[C@H](C(C)(C)C)NC(=O)[C@H](CO)NC(=O)[C@H](Cc3c[nH]c4ccccc34)NC(=O)[C@H]([C@@H](C)O)NC(=O)[C@@H](CCN)NC2=O)[C@@H](C)O)CCNC(=O)[C@H]([C@@H](C)O)NC(=O)[C@H](CCN)NC(=O)[C@H](CCN)NC1=O [Ex. 55] (I: H-VDY[Dab]E[dDab]TWS[Tle][Dab]S-OH / II: [Dab]T[Dab][Dab][Dab][dL]L[Dab][Dab]T; lactam I:2-I:11, II:4-II:C; amide I:5-II:N) | 1 (≈ 0.418 µM) | 0.5 (≈ 0.209 µM) | 8 (≈ 3.34 µM) | 1 (≈ 0.418 µM) | 0.25 (≈ 0.104 µM) | 8 (≈ 3.34 µM) | 0.5 (≈ 0.209 µM) | 0.25 (≈ 0.104 µM) | 2
2 | CC(C)C[C@@H]1NC(=O)[C@@H](CC(C)C)NC(=O)[C@H](CCN)NC(=O)[C@@H](NC(=O)[C@H](CCN)NC(=O)[C@H](CO)NC(=O)[C@H](CCN)NC(=O)CC[C@@H]2NC(=O)[C@H](CN)NC(=O)[C@H](Cc3ccc(O)cc3)NC(=O)[C@@H](NC(=O)[C@@H](O)C(C)C)CSSC[C@@H](C(=O)NCCO)NC(=O)[C@H](C(C)(C)C)NC(=O)[C@H](CO)NC(=O)[C@H](Cc3c[nH]c4ccccc34)NC(=O)[C@H]([C@@H](C)O)NC(=O)[C@@H](CCN)NC2=O)CCNC(=O)[C@H]([C@@H](C)O)NC(=O)[C@H](CCN)NC(=O)[C@H](CCN)NC1=O [Ex. 59] (I: H-[Hiv]CY[Dap]E[dDab]TWS[Tle]C-NHCH2CH2OH / II: [Dab]S[Dab][Dab][Dab][dL]L[Dab][Dab]T; disulfide I:2-I:11; amide I:5-II:N; lactam II:4-II:C) | 0.25 (≈ 0.107 µM) | 0.125 (≈ 0.0537 µM) | 1 (≈ 0.429 µM) | 0.125 (≈ 0.0537 µM) | 0.125 (≈ 0.0537 µM) | 0.25 (≈ 0.107 µM) | 0.125 (≈ 0.0537 µM) | 0.125 (≈ 0.0537 µM) | <1
3 | CC(C)C[C@@H]1NC(=O)[C@@H](CC(C)C)NC(=O)[C@H](CCN)NC(=O)[C@@H](NC(=O)[C@H](CCN)NC(=O)[C@H](CO)NC(=O)[C@H](CCN)NC(=O)CC[C@@H]2NC(=O)[C@H](CCN)NC(=O)[C@H](Cc3ccc(O)cc3)NC(=O)[C@@H](NC(=O)[C@@H](O)C(C)C)CSSC[C@@H](C(=O)N[C@H](CO)[C@@H](C)O)NC(=O)[C@H](C(C)(C)C)NC(=O)[C@H](CO)NC(=O)[C@H](Cc3c[nH]c4ccccc34)NC(=O)[C@H](CCO)NC(=O)[C@@H](CCN)NC2=O)CCNC(=O)[C@H]([C@@H](C)O)NC(=O)[C@H](CCN)NC(=O)[C@H](CCN)NC1=O [Ex. 60] (I: H-[Hiv]CY[Dab]E[dDab][hSer]WS[Tle]C[Thr(ol)] / II: [Dab]S[Dab][Dab][Dab][dL]L[Dab][Dab]T; disulfide I:2-I:11; amide I:5-II:N; lactam II:4-II:C) | 0.125 (≈ 0.0524 µM) | 0.0625 (≈ 0.0262 µM) | 4 (≈ 1.68 µM) | 0.125 (≈ 0.0524 µM) | 0.0625 (≈ 0.0262 µM) | 0.125 (≈ 0.0524 µM) | 0.125 (≈ 0.0524 µM) | 0.125 (≈ 0.0524 µM) | <1
4 | CC(C)C[C@@H]1NC(=O)[C@@H](Cc2ccccc2)NC(=O)[C@H](CCN)NC(=O)[C@@H](NC(=O)[C@H](CCN)NC(=O)[C@@H](NC(=O)[C@H](CCN)NC(=O)CC[C@@H]2NC(=O)[C@H](CCN)NC(=O)[C@H](Cc3ccc(O)cc3)NC(=O)[C@@H](NC(=O)[C@@H](O)C(C)C)CSSC[C@@H](C(=O)N[C@H](CO)[C@@H](C)O)NC(=O)[C@H](C(C)(C)C)NC(=O)[C@H](CO)NC(=O)[C@H](Cc3c[nH]c4ccccc34)NC(=O)[C@H](CCO)NC(=O)[C@@H](CCN)NC2=O)[C@@H](C)O)CCNC(=O)[C@H]([C@@H](C)O)NC(=O)[C@H](CCN)NC(=O)[C@H](CCN)NC1=O [Ex. 61] (I: H-[Hiv]CY[Dab]E[dDab][hSer]WS[Tle]C[Thr(ol)] / II: [Dab]T[Dab][Dab][Dab][dF]L[Dab][Dab]T; disulfide I:2-I:11; amide I:5-II:N; lactam II:4-II:C) | 0.125 (≈ 0.0513 µM) | 0.0625 (≈ 0.0257 µM) | 0.125 (≈ 0.0513 µM) | 0.25 (≈ 0.103 µM) | 0.125 (≈ 0.0513 µM) | 0.125 (≈ 0.0513 µM) | 0.0625 (≈ 0.0257 µM) | 0.125 (≈ 0.0513 µM) | 3
5 | CC(=O)N[C@@H](CO)C(=O)N[C@H]1CSSC[C@@H](C(=O)N[C@H](C(N)=O)C(C)C)NC(=O)[C@H](C(C)C)NC(=O)[C@H](CO)NC(=O)[C@H](Cc2c[nH]c3ccccc23)NC(=O)[C@H](CCO)NC(=O)[C@@H](CCN)NC(=O)[C@H](CCC(=O)N[C@@H](CCN)C(=O)N[C@H](C(=O)N[C@@H](CCN)C(=O)N[C@H]2CCNC(=O)[C@H]([C@@H](C)O)NC(=O)[C@H](CCN)NC(=O)[C@H](CCN)NC(=O)[C@H](CC(C)C)NC(=O)[C@@H](CC(C)C)NC(=O)[C@H](CCN)NC2=O)[C@@H](C)O)NC(=O)[C@H](CCN)NC(=O)[C@H](Cc2ccc(O)cc2)NC1=O [Ex. 62] (I: Ac-SCY[Dab]E[dDab][hSer]WSVCV-NH2 / II: [Dab]T[Dab][Dab][Dab][dL]L[Dab][Dab]T; disulfide I:2-I:11; amide I:5-II:N; lactam II:4-II:C) | 0.125 (≈ 0.0515 µM) | 0.0625 (≈ 0.0258 µM) | 4 (≈ 1.65 µM) | 0.25 (≈ 0.103 µM) | 0.125 (≈ 0.0515 µM) | 0.125 (≈ 0.0515 µM) | 0.0625 (≈ 0.0258 µM) | 0.125 (≈ 0.0515 µM) | <1
6 | CC(=O)N[C@H](C(=O)N[C@H]1CSSC[C@@H](C(=O)N[C@@H](CO)C(N)=O)NC(=O)[C@H](Cc2ccc(O)cc2)NC(=O)[C@H](CO)NC(=O)[C@H](Cc2c[nH]c3ccccc23)NC(=O)[C@H](CCO)NC(=O)[C@@H](CCN)NC(=O)[C@H](CCC(=O)N[C@@H](CCN)C(=O)N[C@H](C(=O)N[C@@H](CCN)C(=O)N[C@H]2CCNC(=O)[C@H]([C@@H](C)O)NC(=O)[C@H](CCN)NC(=O)[C@H](CCN)NC(=O)[C@H](CC(C)C)NC(=O)[C@@H](CC(C)C)NC(=O)[C@H](CCN)NC2=O)[C@@H](C)O)NC(=O)[C@H](CCN)NC(=O)[C@H](C(C)C)NC1=O)C(C)C [Ex. 64] (I: Ac-VCV[Dab]E[dDab][hSer]WSYCS-NH2 / II: [Dab]T[Dab][Dab][Dab][dL]L[Dab][Dab]T; disulfide I:2-I:11; amide I:5-II:N; lactam II:4-II:C) | 0.5 (≈ 0.206 µM) | 0.0625 (≈ 0.0258 µM) | 4 (≈ 1.65 µM) | 0.5 (≈ 0.206 µM) | 0.125 (≈ 0.0515 µM) | 1 (≈ 0.412 µM) | 0.125 (≈ 0.0515 µM) | 0.125 (≈ 0.0515 µM) | <1
